The assay can be described thus: Inhibition of chemR23 expressed in human CAL1 cells assessed as reduction in chemerin-induced chemotaxis incubated for 4 hrs by cell counting based CellTiter-Glo assay.

Experimental findings from BindingDB's records for doi:10.1016/j.bmc.2020.115622 (Kyowa Kirin, 2020) are described below.

By IC50 is commonly meant the concentration needed to halve the response being measured. Regarding `CCCCN(c1nc2c(C(=O)O)cccc2o1)[C@H](C)c1ccc(-c2cc(Cl)ccc2-c2nc(=O)o[nH]2)cc1`, the IC50 came to 0.235 µM.

As to `Cc1ccc(-c2nc(=O)o[nH]2)c(-c2ccc([C@@H](C)N(CC3CC3)c3nc4c(C(=O)O)cccc4o3)cc2)c1`, the IC50 amounted to 0.063 µM.
